What all share (assay type): cell-based
Experiment [1] concerns the target T1, M1 muscarinic receptor (Homo sapiens, UniProt P11229).
T1 construct: expressed in transfected cells; host or cells: CHO (M1-CHO)
T1 sequence (P11229 1-460): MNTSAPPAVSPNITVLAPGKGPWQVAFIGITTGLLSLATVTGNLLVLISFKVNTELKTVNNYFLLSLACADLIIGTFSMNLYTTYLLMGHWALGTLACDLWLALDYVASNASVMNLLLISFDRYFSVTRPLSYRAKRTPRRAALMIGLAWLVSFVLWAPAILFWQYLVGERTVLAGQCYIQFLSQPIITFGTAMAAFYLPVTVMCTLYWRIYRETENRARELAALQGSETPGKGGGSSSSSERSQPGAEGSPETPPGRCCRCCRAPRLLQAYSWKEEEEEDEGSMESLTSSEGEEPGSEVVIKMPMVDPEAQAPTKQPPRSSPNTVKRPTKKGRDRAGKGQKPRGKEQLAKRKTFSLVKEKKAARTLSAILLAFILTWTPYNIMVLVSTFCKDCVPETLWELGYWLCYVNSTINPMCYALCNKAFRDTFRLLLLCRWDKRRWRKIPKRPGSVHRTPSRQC
The experiment can be described thus: Functional mobilization of intracellular calcium (FLIPR), M1-CHO cells. The settings on record: for M1 Efficacy / Emax: 100% efficacy = maximum response obtained with the Carbachol control; for EC50: CHO cells expressing M1, calcium mobilization. How it is done: (§1) Functional Mobilization of Intracellular Calcium to Determine Muscarinic Receptor Activity:
(§2) CHO cells expressing muscarinic receptors (M1 to M5) are grown as monolayers in tissue culture flasks at 37° C. in a humidified atmosphere containing 5% CO2 and passaged every 3-5 days. The growth media is Dulbecco's modified eagles medium (DMEM, Gibco Cat# 12430-054), containing 25 mM Hepes and supplemented with Fetal Bovine Serum (Hyclone, cat #SH30071.03), 0.1 mM of MEM non-essential amino acids (GIBCO, Cat #11140-050), 1 mM MEM Sodium Pyruvate (GIBCO Cat #11360-070) and 100 units/ml of Penicillin G and 100 μg/ml of Streptomycin (GIBCO Cat #15140-122). The recombinant muscarinic receptor cell lines are grown under antibiotic pressure with media containing 25 μg/ml zeocin and 500 μg/ml G418 (M1-CHO), 4 μg/ml puromycin, 50 μg/ml zeocin and 2.5 μg/ml blasticidin (M2 and M4-CHO) or 50 μg/ml zeocin and 4 μg/ml puromycin (M3 and M5-CHO).
(§3) Cells are harvested at 80-90% confluence using Versene (GIBCO Cat #15040-066), collected by centrifugation and seeded 18-24 hrs prior to running the calcium assay at a density of 5,000-10,000 cells/well in […], clear-bottomed 384-well plates (BD Biocoat, poly-D-lysine, Cat#356663). The day of the experiment, the cells are washed with a plate washer (Bioteck Instruments, ELX 405) using bath1 buffer (140-mM NaCl, 4.5-mM KCl, 2-mM CaCl2, 1-mM MgCl2, 10-mM Hepes-Na, 10-mM Glucose, pH 7.4, with NaOH) containing 1 mM Probenecid. Next, the calcium dye Fluo-3 (25 μl/well of Fluo-3 AM at 4 μM, Molecular Probes F-1241, in Bath 1 buffer containing 1 mM Probenecid) is added to the 25 μl of Bath 1 remaining in each well after the plate wash and the dye is loaded at 37° C. in the tissue culture incubator for 60-90 min. The fluorescent dye is removed using the plate washer with Bath 1 containing 1 mM Probenecid, leaving 25 μl/well of this solution after the wash. Alternatively, cells can be loaded with the calcium indicator from Molecular Devices (Calcium 3 Assay Reagents, Cat #R7181) adding 5 μl of a 5× solution dye in Bath 1 containing 1 mM Probenecid (10 ml per dye flask cat #R7182 to generate a solution 20×) to 20 μl of the same buffer. After loading for 60 min, the experiment can be run without having to remove the dye.
(§4) Compounds are prepared at a 2× fold concentration in a 96-well plate (round bottom, Costar Corning cat #3656), by reconstituting the pre-spotted compounds in bath 1 containing 1 mM probenecid. The final concentration DMSO is 0.5%, and the amount of DMSO is normalized across the assay plate. To determine an agonist action of the compounds on muscarinic receptors, the reconstituted compounds are added (25 μl compound/well) to the cell assay plate (containing 25 μl/well) using the multi-channel robotic system of the FLIPR 3 Instrument (Molecular Devices, Sunnyvale, Calif.). To determine a functional inhibitory action of the compounds on muscarinic receptors, the reconstituted compounds are added (25 μl compound/well) to the assay plate and pre-incubated for 15 min prior to adding 25 μl of Carbachol at 3× the EC80 for each muscarinic subtype. Alternatively, the compounds can be co-applied simultaneously with the agonist. In both assay modes, the fluorescence is recorded for 60 sec (excitation wavelength is […] and emission wavelength 540 nm) using the FLIPR 3 instrument.
(§5) The potency, efficacy and selectivity of the muscarinic compounds were evaluated by screening the compound activity across the whole family (M1 to M5 cells). Compounds were also screened for activity on other proteins such as other GPCRs and ion channels to determine selectivity on M4 receptors.
(§6) Examples of activities and efficacies of the muscarinic compounds of formulae (I, Ia, and Ib) on modulating M1 and M4 receptors are shown below in Table 3. […]

Experiment [2] has as its target T2, M4 muscarinic receptor (Homo sapiens, UniProt P08173).
T2 construct: expressed in transfected cells; host or cells: CHO (M4-CHO)
T2 sequence (P08173 1-479): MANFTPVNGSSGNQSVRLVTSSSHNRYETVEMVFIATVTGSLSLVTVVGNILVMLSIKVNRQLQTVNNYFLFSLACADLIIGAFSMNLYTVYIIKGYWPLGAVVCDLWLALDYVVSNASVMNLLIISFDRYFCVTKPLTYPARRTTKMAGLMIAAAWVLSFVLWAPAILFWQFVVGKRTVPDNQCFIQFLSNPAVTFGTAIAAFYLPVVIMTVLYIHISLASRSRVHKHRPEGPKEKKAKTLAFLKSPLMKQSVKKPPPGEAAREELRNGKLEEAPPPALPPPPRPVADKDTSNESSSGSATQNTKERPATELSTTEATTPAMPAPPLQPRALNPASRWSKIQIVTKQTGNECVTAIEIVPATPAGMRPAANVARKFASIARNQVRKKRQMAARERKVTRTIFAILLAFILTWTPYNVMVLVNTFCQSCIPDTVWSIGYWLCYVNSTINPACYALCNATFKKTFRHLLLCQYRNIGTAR
The experiment can be described thus: Functional mobilization of intracellular calcium (FLIPR), M4-CHO cells. The note with it: for M4 Efficacy / Emax: 100% efficacy = maximum response obtained with the Carbachol control; for EC50: CHO cells expressing M4, calcium mobilization. How it is done:
as §1, §2, §3, §4, §5, §6

Experiment [3] concerns the target T3, M2 muscarinic receptor (Homo sapiens, UniProt P08172).
T3 construct: expressed in transfected cells; host or cells: CHO (M2-CHO)
T3 sequence (P08172 1-466): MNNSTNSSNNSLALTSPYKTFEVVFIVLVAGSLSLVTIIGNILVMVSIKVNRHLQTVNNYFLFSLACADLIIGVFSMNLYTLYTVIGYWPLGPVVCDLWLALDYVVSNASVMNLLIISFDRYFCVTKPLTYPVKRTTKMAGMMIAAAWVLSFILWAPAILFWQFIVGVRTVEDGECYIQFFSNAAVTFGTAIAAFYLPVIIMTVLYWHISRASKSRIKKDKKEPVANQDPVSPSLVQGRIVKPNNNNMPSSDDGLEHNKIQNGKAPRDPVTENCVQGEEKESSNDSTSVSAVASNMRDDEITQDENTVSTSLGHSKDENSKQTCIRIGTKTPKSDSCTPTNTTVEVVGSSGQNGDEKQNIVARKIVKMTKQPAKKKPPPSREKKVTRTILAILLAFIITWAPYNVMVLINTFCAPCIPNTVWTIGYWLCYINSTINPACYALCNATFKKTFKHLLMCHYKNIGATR
The experiment can be described thus: Functional mobilization of intracellular calcium (FLIPR), M2-CHO cells. The settings on record: for M2 Efficacy / Emax: 100% efficacy = maximum response obtained with the Carbachol control; for EC50: CHO cells expressing M2, calcium mobilization. As to the method: as §1, §2, §3, §4, §5, §6

Experiment [4] deals with T4, M3 muscarinic receptor (Homo sapiens, UniProt P20309).
T4 construct: expressed in transfected cells; host or cells: CHO (M3-CHO)
Briefly: Functional mobilization of intracellular calcium (FLIPR), M3-CHO cells. The settings on record: for M3 Efficacy / Emax: 100% efficacy = maximum response obtained with the Carbachol control; for EC50: CHO cells expressing M3, calcium mobilization. As to the method:
as §1, §2, §3, §4, §5, §6

T4 sequence (P20309 whole entry): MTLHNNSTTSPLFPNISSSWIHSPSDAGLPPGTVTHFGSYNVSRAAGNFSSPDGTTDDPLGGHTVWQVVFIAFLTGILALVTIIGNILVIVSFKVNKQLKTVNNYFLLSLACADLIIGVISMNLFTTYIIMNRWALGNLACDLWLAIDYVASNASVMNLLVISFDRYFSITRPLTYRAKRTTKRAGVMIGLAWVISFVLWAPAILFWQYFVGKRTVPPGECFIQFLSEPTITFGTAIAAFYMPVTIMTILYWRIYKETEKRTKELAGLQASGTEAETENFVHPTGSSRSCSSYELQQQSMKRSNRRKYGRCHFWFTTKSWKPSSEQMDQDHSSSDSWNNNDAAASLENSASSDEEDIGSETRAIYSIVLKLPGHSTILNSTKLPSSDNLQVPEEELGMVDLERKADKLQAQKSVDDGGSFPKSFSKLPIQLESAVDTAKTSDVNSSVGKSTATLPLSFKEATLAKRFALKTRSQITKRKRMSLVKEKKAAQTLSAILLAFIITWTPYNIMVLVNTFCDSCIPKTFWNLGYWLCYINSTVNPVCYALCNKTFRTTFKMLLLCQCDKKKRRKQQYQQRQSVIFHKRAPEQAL

Take `CN1C(=O)C[C@@H]2CC3(CCN(C4CCCCC4)CC3)c3ccccc3[C@@H]21` [Compound 24]: in experiment [1], the “M1 Efficacy” value is recorded as “++ (efficacy was calculated to be from 100% to 25%)” and the half-maximal effective concentration (EC50) is more than 5 µM. Further, in experiment [2], the “M4 Efficacy” value is “++ (efficacy was calculated to be from 100% to 25%)” and the EC50 was less than 2 µM. In experiment [3], the “M2 Efficacy” value is given as “+ (efficacy was calculated to be less than 25%)” and the concentration giving a half-maximal response (EC50) is more than 5 µM. In addition, in experiment [4], the “M3 Efficacy” value is reported as “+ (efficacy was calculated to be less than 25%)” and the 50% effective concentration (EC50) is more than 5 µM.

For the compound `O=C1C[C@@H]2CC3(CCN(C[C@@H]4C[C@H]5C=C[C@H]4C5)CC3)c3ccccc3[C@@H]2N1` [Compound 25], the maximal response (Emax) in experiment [1], in experiment [2], in experiment [3] and in experiment [4] was 25 to 100% throughout. In addition, the EC50 in experiment [1] is less than 2 µM; in experiment [2] it was less than 2 µM; in experiment [3], less than 2 µM; in experiment [4], more than 5 µM.

For the compound `c1ccc2c(c1)C1OCCC1CC21CCN(C2CCCCC2)CC1` (stereo not drawn) [Compound 26], the Emax is 25 to 100% in experiment [1], less than 25% in experiment [2], less than 25% in experiment [3] and less than 25% in experiment [4]. Moreover, the EC50 in experiment [1] was more than 5 µM; in experiment [2], less than 2 µM; in experiment [3] it was more than 5 µM; in experiment [4], more than 5 µM.

Turning to `CC(=O)N1CC[C@@H]2CC3(CCN(C4CCCCC4)CC3)c3ccccc3[C@@H]21` [Compound 27], the Emax in experiment [1], in experiment [2], in experiment [3] and in experiment [4] was less than 25% throughout. Further, the EC50 in experiment [1], in experiment [2], in experiment [3] and in experiment [4] was more than 5 µM throughout.

As for `O=C1CC2CC3(CCN(C4CC5CCC(C5)C4)CC3)c3ccccc3C2O1` (stereo not drawn) [Compound 28], the Emax in experiment [1] was 25 to 100%; in experiment [2], 25 to 100%; in experiment [3], less than 25%; in experiment [4], less than 25%. Further, the EC50 in experiment [1] was less than 2 µM; in experiment [2], less than 2 µM; in experiment [3] it was more than 5 µM; in experiment [4], more than 5 µM.

`CN1C(=O)C[C@@H]2CC3(CCN(C4CCCCCC4)CC3)c3ccccc3[C@@H]21` [Compound 29]: in experiment [1], the “M1 Efficacy” value is listed as “++ (efficacy was calculated to be from 100% to 25%)” and the EC50 was less than 2 µM. In experiment [2], the “M4 Efficacy” value is given as “++ (efficacy was calculated to be from 100% to 25%)” and the EC50 was less than 2 µM. Moreover, in experiment [3], the “M2 Efficacy” value is reported as “++ (efficacy was calculated to be from 100% to 25%)” and the half-maximal effective concentration (EC50) is less than 2 µM. Further, in experiment [4], the “M3 Efficacy” value is reported as “+ (efficacy was calculated to be less than 25%)” and the EC50 was more than 5 µM.

For the compound `O=C1C[C@@H]2[C@H](N1)c1ccccc1C21CCN(C[C@H]2C[C@@H]3CC[C@@H]2C3)CC1` [Compound 30], the Emax in experiment [1] is 25 to 100%; in experiment [2], 25 to 100%; in experiment [3], 25 to 100%; in experiment [4] it was less than 25%. Besides, the half-maximal effective concentration (EC50) in experiment [1] was less than 2 µM; in experiment [2], less than 2 µM; in experiment [3], 2 to 5 µM; in experiment [4] it was more than 5 µM.

On to `O=C1C[C@@H]2[C@H](N1)c1ccccc1C21CCN(C2CCCCC2)CC1` [Compound 31], for which the Emax in experiment [1] was 25 to 100%; in experiment [2] it was 25 to 100%; in experiment [3], less than 25%; in experiment [4] it was less than 25%. Further, the concentration giving a half-maximal response (EC50) in experiment [1] is less than 2 µM; in experiment [2], less than 2 µM; in experiment [3], 2 to 5 µM; in experiment [4], more than 5 µM.

On to `O=C1C[C@@H]2[C@H](N1)c1ccccc1C21CCN(C2C[C@H]3CC[C@@H]2C3)CC1` (stereo partly drawn) [Compound 32], for which the maximum response (Emax) is 25 to 100% in experiment [1], 25 to 100% in experiment [2], 25 to 100% in experiment [3] and less than 25% in experiment [4]. Further, the EC50 in experiment [1] is 2 to 5 µM; in experiment [2], less than 2 µM; in experiment [3], 2 to 5 µM; in experiment [4], more than 5 µM.

The values are drawn from patent publication US7973162B2, “Modulators of muscarinic receptors” (Vertex Pharmaceuticals Incorporated, priority 2007, dated 2011).
